{"source": "ChEMBL document CHEMBL2034891", "about": "“Discovery, design and synthesis of Y-shaped peroxisome proliferator-activated receptor δ agonists as potent anti-obesity agents in vivo” (Eur J Med Chem, 2012)", "key": {"[1]": {"molecular_target": "T1, Peroxisome proliferator-activated receptor alpha (Homo sapiens, UniProt Q07869)", "T1 sequence (Q07869 whole entry)": "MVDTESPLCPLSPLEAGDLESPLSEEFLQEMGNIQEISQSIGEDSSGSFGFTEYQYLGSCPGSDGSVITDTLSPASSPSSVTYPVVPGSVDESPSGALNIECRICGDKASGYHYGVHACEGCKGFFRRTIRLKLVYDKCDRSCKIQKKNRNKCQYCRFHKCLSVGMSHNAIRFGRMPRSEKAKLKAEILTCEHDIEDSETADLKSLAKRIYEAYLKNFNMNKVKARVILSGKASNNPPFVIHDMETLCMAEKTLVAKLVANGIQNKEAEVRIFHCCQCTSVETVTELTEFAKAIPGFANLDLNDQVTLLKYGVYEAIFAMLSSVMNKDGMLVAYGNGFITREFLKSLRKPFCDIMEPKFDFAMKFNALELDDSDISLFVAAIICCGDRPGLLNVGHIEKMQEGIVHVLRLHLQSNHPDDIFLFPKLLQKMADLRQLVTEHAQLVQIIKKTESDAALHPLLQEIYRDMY", "assay": "Transactivation activity at human PPARalpha expressed in african green monkey CV1 cells after 24 hrs by luciferase reporter gene assay", "type": "cell-based, CV-1"}, "[2]": {"molecular_target": "T2, Peroxisome proliferator-activated receptor gamma (Homo sapiens, UniProt P37231)", "T2 sequence (P37231 whole entry)": "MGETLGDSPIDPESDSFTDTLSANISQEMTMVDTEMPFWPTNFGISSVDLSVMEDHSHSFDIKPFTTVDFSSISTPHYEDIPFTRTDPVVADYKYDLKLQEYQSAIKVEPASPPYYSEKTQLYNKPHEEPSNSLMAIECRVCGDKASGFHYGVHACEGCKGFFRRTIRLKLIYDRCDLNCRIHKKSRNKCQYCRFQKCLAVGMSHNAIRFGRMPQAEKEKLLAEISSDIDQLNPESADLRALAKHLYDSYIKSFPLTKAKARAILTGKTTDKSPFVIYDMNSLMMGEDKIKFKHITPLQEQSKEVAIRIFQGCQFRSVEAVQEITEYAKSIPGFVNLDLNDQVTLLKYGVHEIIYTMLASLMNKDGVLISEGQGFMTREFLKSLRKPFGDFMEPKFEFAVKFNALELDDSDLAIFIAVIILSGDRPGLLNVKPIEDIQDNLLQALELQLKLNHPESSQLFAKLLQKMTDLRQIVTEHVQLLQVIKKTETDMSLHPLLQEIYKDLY", "assay": "Transactivation activity at human PPARgamma expressed in african green monkey CV1 cells after 24 hrs by luciferase reporter gene assay", "type": "cell-based, CV-1"}, "[3]": {"molecular_target": "T3, Peroxisome proliferator-activated receptor delta (Homo sapiens, UniProt Q03181)", "T3 sequence (Q03181 whole entry)": "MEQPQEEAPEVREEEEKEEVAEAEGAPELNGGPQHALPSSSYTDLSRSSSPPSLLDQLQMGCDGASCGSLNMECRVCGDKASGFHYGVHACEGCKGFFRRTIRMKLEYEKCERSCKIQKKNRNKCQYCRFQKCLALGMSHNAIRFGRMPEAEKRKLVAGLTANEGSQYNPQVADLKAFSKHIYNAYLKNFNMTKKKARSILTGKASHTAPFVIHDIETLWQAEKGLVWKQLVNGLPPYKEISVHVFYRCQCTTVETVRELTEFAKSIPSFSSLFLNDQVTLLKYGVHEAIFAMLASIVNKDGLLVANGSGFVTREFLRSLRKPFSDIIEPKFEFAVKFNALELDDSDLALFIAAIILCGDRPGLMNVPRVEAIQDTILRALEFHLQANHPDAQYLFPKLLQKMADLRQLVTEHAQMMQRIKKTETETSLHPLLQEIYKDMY", "assay": "Transactivation activity at human PPARdelta expressed in african green monkey CV1 cells after 24 hrs by luciferase reporter gene assay", "type": "cell-based, CV-1"}, "Homo sapiens": {"organism": "Homo sapiens", "assay": "Selectivity ratio of EC50 for human PPARalpha to EC50 for human PPARdelta"}, "[4]": {"assay": "Terminal half life in ICR mouse at 10 mg/kg, po", "type": "ADME, organism-based", "set-up": "dose 10 mg/kg, route oral", "conditions": "in vivo, read-out: beta t1/2 (converted)"}, "[5]": {"assay": "Tmax in ICR mouse at 10 mg/kg, po", "type": "ADME, organism-based", "set-up": "dose 10 mg/kg, route oral", "conditions": "in vivo"}, "[6]": {"assay": "Cmax in ICR mouse at 10 mg/kg, po", "type": "ADME, organism-based", "set-up": "dose 10 mg/kg, route oral", "conditions": "in vivo"}, "[7]": {"assay": "AUC in ICR mouse at 10 mg/kg, po", "type": "ADME, organism-based", "set-up": "dose 10 mg/kg, route oral", "conditions": "plasma"}, "Mus musculus [8]": {"tested_on": "Mus musculus", "assay": "Dose normalized AUC in ICR mouse at 10 mg/kg, po", "type": "ADME, organism-based", "set-up": "dose 10 mg/kg, route oral", "conditions": "in vivo"}, "Mus musculus [9]": {"tested_on": "Mus musculus", "assay": "Volume of distribution at steady state in ICR mouse at 10 mg/kg, po", "type": "ADME, organism-based", "set-up": "dose 10 mg/kg, route oral", "conditions": "in vivo"}, "[10]": {"assay": "Clearance in ICR mouse at 10 mg/kg, po", "type": "ADME, organism-based", "set-up": "dose 10 mg/kg, route oral", "conditions": "in vivo"}, "Mus musculus [11]": {"tested_on": "Mus musculus", "assay": "AUMC in ICR mouse at 10 mg/kg, po", "type": "ADME, organism-based", "set-up": "dose 10 mg/kg, route oral", "conditions": "in vivo"}, "[12]": {"assay": "Mean residence time in ICR mouse at 10 mg/kg, po", "type": "ADME, organism-based", "set-up": "dose 10 mg/kg, route oral", "conditions": "in vivo"}, "[13]": {"assay": "Terminal half life in ICR mouse at 1 mg/kg, iv", "type": "ADME, organism-based", "set-up": "dose 1 mg/kg, route intravenous", "conditions": "in vivo, read-out: beta t1/2 (converted)"}, "[14]": {"assay": "Tmax in ICR mouse at 1 mg/kg, iv", "type": "ADME, organism-based", "set-up": "dose 1 mg/kg, route intravenous", "conditions": "in vivo"}, "[15]": {"assay": "Cmax in ICR mouse at 1 mg/kg, iv", "type": "ADME, organism-based", "set-up": "dose 1 mg/kg, route intravenous", "conditions": "in vivo"}, "[16]": {"assay": "AUC in ICR mouse at 1 mg/kg, iv", "type": "ADME, organism-based", "set-up": "dose 1 mg/kg, route intravenous", "conditions": "plasma"}, "Mus musculus [17]": {"tested_on": "Mus musculus", "assay": "Dose normalized AUC in ICR mouse at 1 mg/kg, iv", "type": "ADME, organism-based", "set-up": "dose 1 mg/kg, route intravenous", "conditions": "in vivo"}, "[18]": {"assay": "Volume of distribution at steady state in ICR mouse at 1 mg/kg, iv", "type": "ADME, organism-based", "set-up": "dose 1 mg/kg, route intravenous", "conditions": "in vivo, read-out: Vdss"}, "[19]": {"assay": "Clearance in ICR mouse at 1 mg/kg, iv", "type": "ADME, organism-based", "set-up": "dose 1 mg/kg, route intravenous", "conditions": "in vivo"}, "Mus musculus [20]": {"tested_on": "Mus musculus", "assay": "AUMC in ICR mouse at 1 mg/kg, iv", "type": "ADME, organism-based", "set-up": "dose 1 mg/kg, route intravenous", "conditions": "in vivo"}, "[21]": {"assay": "Mean residence time in ICR mouse at 1 mg/kg, iv", "type": "ADME, organism-based", "set-up": "dose 1 mg/kg, route intravenous", "conditions": "in vivo"}, "[22]": {"assay": "Oral bioavailability in ICR mouse at 10 mg/kg", "type": "ADME, organism-based", "conditions": "in vivo"}, "Mus musculus [23]": {"tested_on": "Mus musculus", "assay": "Antiobesity activity in high-fat diet fed C57BL/6 mouse assessed as increase in body weight at 10 mg/kg, po QD measured after 78 days (reference value: 102%)", "type": "functional"}, "Mus musculus [24]": {"tested_on": "Mus musculus", "assay": "Antiobesity activity in high-fat diet fed C57BL/6 mouse assessed as decrease in serum triglyceride level at 10 mg/kg, po QD relative to vehicle-treated control", "type": "functional", "set-up": "scale not given: the % may be the effect or the level left"}, "Mus musculus [25]": {"tested_on": "Mus musculus", "assay": "Antiobesity activity in high-fat diet fed C57BL/6 mouse assessed as decrease in serum free fatty acid level at 10 mg/kg, po QD relative to vehicle-treated control", "type": "functional", "set-up": "scale not given: the % may be the effect or the level left"}, "Mus musculus [26]": {"tested_on": "Mus musculus", "assay": "Antiobesity activity in high-fat diet fed C57BL/6 mouse assessed as absence of fatty liver at 10 mg/kg, po QD hematoxylin and eosin staining-based histological analysis", "type": "functional, organism-based", "set-up": "dose 10 mg/kg"}, "Mus musculus [27]": {"tested_on": "Mus musculus", "assay": "Antiobesity activity in high-fat diet fed C57BL/6 mouse assessed as decrease in lipid accumulation on brown adipose tissue at 10 mg/kg, po QD hematoxylin and eosin staining-based histological analysis", "type": "functional, organism-based", "set-up": "dose 10 mg/kg"}, "Mus musculus [28]": {"tested_on": "Mus musculus", "assay": "Antiobesity activity in high-fat diet fed C57BL/6 mouse assessed as decrease in lipid accumulation on white adipose tissue at 10 mg/kg, po QD hematoxylin and eosin staining-based histological analysis", "type": "functional, organism-based", "set-up": "dose 10 mg/kg"}, "Mus musculus [29]": {"tested_on": "Mus musculus", "assay": "Toxicity in high-fat diet fed C57BL/6 mouse assessed as decrease in food intake at 10 mg/kg, po QD relative to control", "type": "organism-based", "set-up": "dose 10 mg/kg, route oral", "conditions": "in vivo"}, "[30]": {"molecular_target": "T3, Peroxisome proliferator-activated receptor delta", "assay": "Binding affinity at human GST-tagged PPARdelta ligand binding domain after 1 hr by time-resolved FRET analysis"}}, "note": "Activity calls are given as the source filed them. The calls are words filed in the database; no cut-off is given here."}
{"smiles": "Cc1cc(SC(Cc2ccccc2)c2sc(-c3ccc(C(F)(F)F)cc3)nc2C)ccc1OCC(=O)O", "note": "(stereo unspecified)", "values": [{"measurement": "EC50", "setting": "[1]", "result": "> 10000", "unit": "nM"}, {"measurement": "EC50", "setting": "[2]", "result": "> 10000", "unit": "nM"}, {"measurement": "EC50", "setting": "[3]", "result": 1.6, "unit": "nM"}, {"measurement": "Ratio EC50", "setting": "Homo sapiens", "result": 10000}, {"measurement": "half-life", "setting": "[4]", "result": 5.27, "unit": "h"}, {"measurement": "Tmax", "setting": "[5]", "result": 2.75, "unit": "h"}, {"measurement": "Cmax", "setting": "[6]", "result": 37900, "unit": "ng/mL"}, {"measurement": "AUC", "setting": "[7]", "result": 357, "unit": "µg·h/mL"}, {"measurement": "AUC/dose", "setting": "Mus musculus [8]", "result": 35.7, "unit": "kg·µg·h/mL/mg"}, {"measurement": "Vdss", "setting": "Mus musculus [9]", "result": 0.212, "unit": "L/kg"}, {"measurement": "CL/F", "setting": "[10]", "result": 0.47, "unit": "mL/min/kg"}, {"measurement": "AUMC", "setting": "Mus musculus [11]", "result": 3340, "unit": "hr.hr.ug/ml"}, {"measurement": "MRT", "setting": "[12]", "result": 9.32, "unit": "h"}, {"measurement": "half-life", "setting": "[13]", "result": 3.69, "unit": "h"}, {"measurement": "Tmax", "setting": "[14]", "result": 0.33, "unit": "h"}, {"measurement": "Cmax", "setting": "[15]", "result": 8980, "unit": "ng/mL"}, {"measurement": "AUC", "setting": "[16]", "result": 40.6, "unit": "µg·h/mL"}, {"measurement": "AUC/dose", "setting": "Mus musculus [17]", "result": 40.6, "unit": "kg·µg·h/mL/mg"}, {"measurement": "Vd", "setting": "[18]", "result": 0.131, "unit": "L/kg"}, {"measurement": "clearance", "setting": "[19]", "result": 0.41, "unit": "mL/min/kg"}, {"measurement": "AUMC", "setting": "Mus musculus [20]", "result": 243, "unit": "hr.hr.ug/ml"}, {"measurement": "MRT", "setting": "[21]", "result": 5.98, "unit": "h"}, {"measurement": "bioavailability", "setting": "[22]", "result": 88, "unit": "%"}, {"measurement": "Activity", "setting": "Mus musculus [23]", "result": 60, "unit": "%"}, {"measurement": "Activity", "setting": "Mus musculus [24]", "result": 29, "unit": "%"}, {"measurement": "Activity", "setting": "Mus musculus [25]", "result": 26, "unit": "%"}, {"measurement": "Activity", "setting": "Mus musculus [26]", "result": "Active"}, {"measurement": "Activity", "setting": "Mus musculus [27]", "result": "Active"}, {"measurement": "Activity", "setting": "Mus musculus [28]", "result": "Active"}, {"measurement": "Activity", "setting": "Mus musculus [29]", "result": "Non-toxic"}, {"measurement": "EC50", "setting": "[30]", "result": 13, "unit": "nM"}]}
